The record followed here is US10723699B2 (Hyundai Pharm Co., Ltd., priority 2015, dated 2020).

The target of the test is T1, G protein-coupled receptor 119 (GPR-119) (Mesocricetus auratus, UniProt A0A1U8CD06).
T1 construct: hamster-derived β-cells containing G protein-coupled receptor 119 (GPR-119), HIT-T15 cells; host or cells: HIT-T15 (hamster pancreatic β-cells)
T1 sequence (A0A1U8CD06 1-334): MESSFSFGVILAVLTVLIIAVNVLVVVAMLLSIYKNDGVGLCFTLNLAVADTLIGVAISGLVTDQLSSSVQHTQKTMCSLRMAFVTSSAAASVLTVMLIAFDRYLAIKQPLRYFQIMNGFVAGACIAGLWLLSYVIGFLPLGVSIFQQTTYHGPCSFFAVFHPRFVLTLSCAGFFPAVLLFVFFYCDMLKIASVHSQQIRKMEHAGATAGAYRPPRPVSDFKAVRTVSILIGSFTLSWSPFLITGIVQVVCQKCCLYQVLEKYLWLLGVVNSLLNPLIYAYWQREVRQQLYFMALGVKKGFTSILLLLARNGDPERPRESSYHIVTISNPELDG
Put plainly: cAMP activity in HIT-T15 cells (cAMP dynamic kit, FRET). The class given is cell-based, hamster. An outline of the steps:
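Hamster HIT-T15 cells (60,000/well) were treated next day with compound at six concentrations, 0.0032–10 μM, for 1 h at 37° C. Cells were then lysed and cAMP measured by competitive HTRF immunoassay (D2-cAMP, cryptate anti-cAMP). Activity was derived as the change in FRET signal relative to DMSO.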

Setting [1] is: 1 hour at 37° C., six concentrations 0.0032 to 10 μM, read-out: EC50.

Where two headings read alike, the source gives them in different places.

For orientation: EC50 means the concentration needed to bring the measured effect to its halfway point. For the compound `CCc1cnc(N2CCC(COc3ccc(C4=CCC(C(=O)N5CCCC5)CC4)cn3)CC2)nc1` (centres unmarked) [Example 349, (4-(6-((1-(5-ethylpyrimidin-2-yl)piperidin-4-yl)methoxy)pyridin-3-yl)cyclohex-3-enyl)(pyrrolidin-1-yl)methanone], the EC50 was 27 nM under setting [1] and ≤ 50 nM (Table 2, read-out: EC50 value).
With `CC(C)c1noc(N2CCC(COc3ccc(C4=CCC(C(=O)NC5CC5)CC4)cc3F)CC2)n1` (centres unmarked) [Example 363, N-cyclopropyl-4-(3-fluoro-4-((1-(3-isopropyl-1,2,4-oxadiazol-5-yl)piperidin-4-yl)methoxy)phenyl)cyclohex-3-enecarboxamide], under setting [1], the EC50 is 110 nM.
On the same count and under the same terms, to `CC(C)(C)OC(=O)N1CCC(COc2ccc(C3=CCC(C(=O)N4CCCCC4)CC3)nc2)CC1` (centres unmarked) [Example 311, tert-butyl 4-((6-(4-(piperidine-1-carbonyl)cyclohex-1-enyl)pyridin-3-yloxy)methyl)piperidine-1-carboxylate] belongs 79 nM.
On to `CCc1cnc(N2CCC(COc3ccc(C4=CCC(C(=O)N(CCO)CCO)CC4)cc3F)CC2)nc1` (centres unmarked) [Example 323, 4-(4-((1-(5-ethylpyrimidin-2-yl)piperidin-4-yl)methoxy)-3-fluorophenyl)-N,N-bis(2-hydroxyethyl)cyclohex-3-enecarboxamide], for which the EC50 is, setting by setting: under setting [1], 28 nM; (Table 2, read-out: EC50 value) ≤ 50 nM.
Turning to `CC(C)c1noc(N2CCC(COc3ccc(C4=CCC(C(=O)N5CCC(N6CCCCC6)CC5)CC4)cc3F)CC2)n1` (centres unmarked) [Example 362, 1,4′-bipiperidin-1′-yl(4-(3-fluoro-4-((1-(3-isopropyl-1,2,4-oxadiazol-5-yl)piperidin-4-yl)methoxy)phenyl)cyclohex-3-enyl)methanone], the EC50 under setting [1] is 180 nM.
Turning to `O=C(Oc1ccccc1)N1CCC(COc2ccc(C3=CCC(C(=O)N4CCOCC4)CC3)cc2F)CC1` (centres unmarked) [Example 445, phenyl 4-((2-fluoro-4-(4-(morpholine-4-carbonyl)cyclohex-1-enyl)phenoxy)methyl)piperidine-1-carboxylate], the EC50 reads like this: under setting [1], 11 nM; (Table 2, read-out: EC50 value) ≤ 50 nM.
Regarding `CC(C)(C)OC(=O)N1CCC(COc2ccc(C3=CCC(C(=O)N4CCC(CCO)CC4)CC3)nc2)CC1` (centres unmarked) [Example 326, tert-butyl 4-((6-(4-(4-(2-hydroxyethyl)piperidine-1-carbonyl)cyclohex-1-enyl)pyridin-3-yloxy)methyl)piperidine-1-carboxylate], the EC50 under setting [1] was determined as 70 nM.
Turning to `CCc1cnc(N2CCC(COc3ccc(C4=CCC(C(=O)N5CCC(N6CCCC6)CC5)CC4)cc3F)CC2)nc1` (centres unmarked) [Example 298, (4-(4-((1-(5-ethylpyrimidin-2-yl)piperidin-4-yl)methoxy)-3-fluorophenyl)cyclohex-3-enyl)(4-(pyrrolidin-1-yl)piperidin-1-yl)methanone], under setting [1], the EC50 stood at 150 nM.
Still for that read-out and setting: to `CCc1cnc(N2CCC(COc3ccc(C4=CCC(C(=O)N5CCN(C6CC6)CC5)CC4)cc3)CC2)nc1` (centres unmarked) [Example 395, (4-cyclopropylpiperazin-1-yl)(4-(4-((1-(5-ethylpyrimidin-2-yl)piperidin-4-yl)methoxy)phenyl)cyclohex-3-enyl)methanone] belongs 14 nM.
With `CON=C1CCN(C(=O)C2CC=C(c3ccc(OCC4CCN(c5nc(C(C)C)no5)CC4)cc3)CC2)CC1` (centres unmarked) [Example 410, (4-(4-((1-(3-isopropyl-1,2,4-oxadiazol-5-yl)piperidin-4-yl)methoxy)phenyl)cyclohex-3-enyl)(4-(methoxyimino)piperidin-1-yl)methanone], the EC50 under setting [1] stood at 14 nM.
Take `CCc1cnc(N2CCC(COc3ccc(C4=CCC(C(=O)N5CCOCC5)CC4)cc3F)CC2)nc1` (centres unmarked) [Example 299, (4-(4-((1-(5-ethylpyrimidin-2-yl)piperidin-4-yl)methoxy)-3-fluorophenyl)cyclohex-3-enyl)(morpholino)methanone]: the EC50 under setting [1] amounted to 12 nM and the EC50 (Table 2, read-out: EC50 value) was ≤ 50 nM.
Consider `O=C(C1CC=C(c2ccc(OCC3CCN(C(=O)C4(C(F)(F)F)CC4)CC3)c(F)c2)CC1)N1CCCC1` (centres unmarked) [Example 421, (4-(3-fluoro-4-((1-(1-(trifluoromethyl)cyclopropanecarbonyl)piperidin-4-yl)methoxy)phenyl)cyclohex-3-enyl)(pyrrolidin-1-yl)methanone], for which, under setting [1], the EC50 is 53 nM.
On to `CCc1cnc(N2CCC(COc3ccc(C4=CCC(C(=O)N5CCC[C@H]5CO)CC4)cc3)CC2)nc1` (single isomer, unassigned; (+)) [Example 466], for which the EC50 by setting is: under setting [1], 12 nM; (Table 2, read-out: EC50 value) ≤ 50 nM.
Regarding `CC(OC(=O)N1CCC(COc2ccc(C3=CCC(C(=O)N4CCOCC4)CC3)cc2F)CC1)C(F)(F)F` (centres unmarked) [Example 440, 1,1,1-trifluoropropan-2-yl 4-((2-fluoro-4-(4-(morpholine-4-carbonyl)cyclohex-1-enyl)phenoxy)methyl)piperidine-1-carboxylate], the EC50 under setting [1] amounted to 8.7 nM and the EC50 (Table 2, read-out: EC50 value) was ≤ 50 nM.
Consider `CC(C)c1noc(N2CCC(COc3ccc(C4=CCC(C(=O)N5CCC(C(N)=O)CC5)CC4)cc3F)CC2)n1` (centres unmarked) [Example 361, 1-(4-(3-fluoro-4-((1-(3-isopropyl-1,2,4-oxadiazol-5-yl)piperidin-4-yl)methoxy)phenyl)cyclohex-3-enecarbonyl)piperidine-4-carboxamide], for which the EC50 by setting is: under setting [1], 48 nM; (Table 2, read-out: EC50 value) ≤ 50 nM.
In the case of `CC(C)c1noc(N2CCC(COc3ccc(C4=CCC(C(=O)NC5CCCC5)CC4)cc3F)CC2)n1` (centres unmarked) [Example 365, N-cyclopentyl-4-(3-fluoro-4-((1-(3-isopropyl-1,2,4-oxadiazol-5-yl)piperidin-4-yl)methoxy)phenyl)cyclohex-3-enecarboxamide], the EC50 reads like this: under setting [1], 38 nM; (Table 2, read-out: EC50 value) ≤ 50 nM.
Take `CC(C)c1noc(N2CCC(COc3ccc(C4=CCC(C(=O)NCC(C)(C)CO)CC4)cc3F)CC2)n1` (centres unmarked) [Example 371, 4-(3-fluoro-4-((1-(3-isopropyl-1,2,4-oxadiazol-5-yl)piperidin-4-yl)methoxy)phenyl)-N-(3-hydroxy-2,2-dimethylpropyl)cyclohex-3-enecarboxamide]: the EC50 runs as follows: under setting [1], 39 nM; (Table 2, read-out: EC50 value) ≤ 50 nM.
For the compound `CC(C)c1noc(N2CCC(COc3ccc(C4=CCC(C(=O)N5CCCCC5)CC4)cn3)CC2)n1` (centres unmarked) [Example 316, (4-(6-((1-(3-isopropyl-1,2,4-oxadiazol-5-yl)piperidin-4-yl)methoxy)pyridin-3-yl)cyclohex-3-enyl)(piperidin-1-yl)methanone], the EC50 by setting is: under setting [1], 37 nM; (Table 2, read-out: EC50 value) ≤ 50 nM.
For `CCc1cnc(N2CCC(COc3ccc(C4=CCC(C(=O)N5CCC(C(F)(F)F)CC5)CC4)cc3F)CC2)nc1` (centres unmarked) [Example 456, (4-(4-((1-(5-ethylpyrimidin-2-yl)piperidin-4-yl)methoxy)-3-fluorophenyl)cyclohex-3-enyl)(4-(trifluoromethyl)piperidin-1-yl)methanone], the EC50 under setting [1] was determined as 18 nM and the EC50 (Table 2, read-out: EC50 value) is ≤ 50 nM.
On the same counts, the results for `CC(C)(C)OC(=O)N1CCC(COc2ccc(C3=CCC(C(=O)N4CCSCC4)CC3)nc2)CC1` (centres unmarked) [Example 328, tert-butyl 4-((6-(4-(thiomorpholine-4-carbonyl)cyclohex-1-enyl)pyridin-3-yloxy)methyl)piperidine-1-carboxylate] are 21 nM and ≤ 50 nM.
